Active and inactive are the calls of the source. No rule for the calls is given here.
Each compound was assayed against alkaline phosphatase, placental type (Homo sapiens) (assay: inhibition of placental alkaline phosphatase – biochemical, uHTS hits, selectivity assay for mouse IAP inhibitor project, dose response (AID 488879)). Details: purified human placental alkaline phosphatase, enzymatic inhibition.

Row | SMILES | IC50
1 | Cc1cccnc1Nc1nc(-c2ccc(O)c(O)c2)cs1 | > 100 µM (inactive)
2 | CCOC(=O)C1=C(C)N=c2s/c(=C/c3cccc([N+](=O)[O-])c3O)c(=O)n2C1c1ccc(OC)cc1OC (stereo unspecified) | > 100 µM (inactive)
3 | Cc1ccc(CN2C3CCCC2CC(NC(=O)Nc2cccc(F)c2)C3)cc1 (stereo unspecified) | > 100 µM (inactive)
4 | S=C(NCCC(c1ccccc1)c1ccccc1)Nc1cccc(Cl)c1 | 72.7 µM
5 | N#Cc1c(SCC(=O)Nc2nc3ccccc3s2)sc2c(O)cc(=O)[nH]c12 | > 100 µM (inactive)
6 | CN(c1ccccc1C(=O)O)S(=O)(=O)c1ccc2c3c(cccc13)C(=O)N2 | > 100 µM (inactive)
7 | N#C/C(=C\c1ccc(O)c(O)c1)C(=O)Nc1cccc2ncccc12 | 7.32 µM
8 | Clc1ccc(C(c2ccc(Cl)cc2)n2cc[n+](CC(OCc3ccc(Cl)cc3Cl)c3ccc(Cl)cc3Cl)c2)cc1 (stereo unspecified) | > 100 µM (inactive)
9 | COc1ccc(C(=O)OCC(=O)Nc2ncc([N+](=O)[O-])s2)cc1OC | > 100 µM (inactive)
10 | O=C(NN1C(=O)/C(=C/C=C/c2ccco2)SC1=S)c1ccccc1O | 27.2 µM
11 | O=C(NN1C(=O)/C(=C/c2ccc(O)c(O)c2)SC1=S)c1ccccc1 | > 100 µM (inactive)
12 | O=C1c2cccc(O)c2C(=O)c2c(O)cc(CO)cc21 | > 100 µM (inactive)
13 | COc1cc(/C=N/NC(=O)c2cc(O)cc(O)c2)ccc1OC(=O)c1ccccc1 | 70.1 µM
14 | NS(=O)(=O)c1ccc(-c2ccc(/C=C3\NC(=S)NC3=O)o2)cc1 | > 100 µM (inactive)
15 | O=C(NN1C(=O)/C(=C/c2ccc(O)cc2)SC1=S)c1ccccc1O | > 100 µM (inactive)
16 | CC(C(=O)O)N1C(=O)/C(=C/C=C/c2ccco2)SC1=S (stereo unspecified) | > 100 µM (inactive)
17 | Cc1ccc(/C=C2\SC(=S)N(/N=C/c3cc([N+](=O)[O-])ccc3O)C2=O)o1 | > 100 µM (inactive)
18 | COc1cccc(NC(=S)NCCC(c2ccccc2)c2ccccc2)c1 | > 100 µM (inactive)
19 | OCCCN1c2ccccc2Nc2nnc(-c3ccccc3)cc21 | > 100 µM (inactive)
20 | NC1=NC(=O)/C(=C\c2ccco2)S1 | 32 µM
21 | C#CCOCCOCCOCCNc1nc(N2CCN(C(=O)CCCCCCCCCCNC(=O)Cn3cc(C[C@@H](C)O)nn3)CC2)nc(N2CCN(C(=O)CCCCCCCCCCNC(=O)[C@H](CCCCN)n3cc(C[C@@H](C)CC)nn3)CC2)n1 | > 100 µM (inactive)
22 | Cc1ccc(N/C(N)=N/c2nc(C)cc(N3CCCCC3)n2)c(C)c1 | 26.3 µM
23 | CN(CC(=O)NC(c1ccccc1)c1ccccc1)Cc1nc2ccccc2c(=O)[nH]1 | > 100 µM (inactive)

Row | SMILES | IC50
24 | O=C(COc1ccccc1C(=O)N/N=C\c1ccc(O)c(O)c1)N/N=C/c1ccc(O)c(O)c1 | > 100 µM (inactive)
25 | COc1cccc(NC(=O)CN(C)S(=O)(=O)c2ccc3[nH]c(=O)oc3c2)c1 | > 100 µM (inactive)
26 | C=CCn1cc(CN2CCC(C(=O)Nc3cccc(-c4cccc(Cl)c4)c3)CC2)c(C)n1 | 34.3 µM
27 | Cc1cc(C)cc(NC(=S)NC2CC3CCCC(C2)N3Cc2cccs2)c1 (stereo unspecified) | 42 µM
28 | Oc1ccc(-c2csc(Nc3cccc4ccccc34)n2)cc1O | > 100 µM (inactive)
29 | CCCCCOc1ccc(C(=O)CCC(=O)NNC(=O)c2ccncc2)cc1 | > 100 µM (inactive)
30 | CCCn1ncc(CN2CCC(C(=O)Nc3cccc(-c4cccc(F)c4)c3)CC2)c1C | > 100 µM (inactive)
31 | COc1cc(/C=C/C(O)=C/C(=O)/C=C/c2ccc(O)cc2)ccc1O | > 100 µM (inactive)
32 | O=C(N/N=C/c1cccnc1)c1cc(O)c(O)c(O)c1 | > 100 µM (inactive)
33 | CCOC(=O)c1ccc(N2CCN(c3ccccc3F)CC2)c(NC(=O)Nc2cccc(OC)c2)c1 | > 100 µM (inactive)
34 | O=c1[nH]c2ccc(S(=O)(=O)N3CCCCC3)cc2o1 | > 100 µM (inactive)
35 | NS(=O)(=O)c1ccc2c(c1)oc(=O)c1cc(S(N)(=O)=O)ccc12 | > 100 µM (inactive)
36 | O=c1ccc2c(-c3ccccc3S(=O)(=O)O)c3ccc(O)c(O)c3oc-2c1O | > 100 µM (inactive)
37 | COc1ccc(Cl)cc1NC(=S)NCCC(c1ccccc1)c1ccccc1 | 39.4 µM
38 | O=C1CSC(=S)N1/N=C/c1ccc(O)c(O)c1O | > 100 µM (inactive)
39 | O=C(NC1CCCCC1)Oc1cc2oc(=O)sc2cc1Cl | 5.95 µM
40 | O=C(/C=C/c1ccco1)NC(=S)Nc1ccc(C(=O)O)cc1 | > 100 µM (inactive)
41 | O=C1/C(=C\c2cccc(O)c2O)SC(=S)N1Cc1ccccc1 | > 100 µM (inactive)
42 | Cc1c(Cl)cccc1NC(=S)NCCC(c1ccccc1)c1ccccc1 | > 100 µM (inactive)
43 | COC(=O)c1ccc(NS(=O)(=O)c2ccc3[nH]c(=O)oc3c2)cc1 | > 100 µM (inactive)
44 | C#CCOCCOCCOCCNc1nc(N2CCN(C(=O)CCCCCCCCCCNC(=O)[C@H](CO)n3cc(CCCSC)nn3)CC2)nc(N2CCN(C(=O)CCCCCCCCCCNC(=O)[C@H](CCCN=C(N)N)n3cc(C[C@@H](C)CC)nn3)CC2)n1 | > 100 µM (inactive)
45 | CN=c1scc(-c2ccco2)n1/N=C/c1ccc(O)c(O)c1 | > 100 µM (inactive)
46 | O=C1CC(c2ccc(O)c(O)c2)Oc2c1ccc(O)c2O (stereo unspecified) | > 100 µM (inactive)

Row | SMILES | IC50
47 | CCOc1ccc(S(=O)(=O)Nc2cc(Sc3ncn[nH]3)c3oc(=O)sc3c2)cc1 | > 100 µM (inactive)
48 | CCOC(=O)c1ccc(N2CCN(c3ccccc3F)CC2)c(NC(=O)Nc2ccccc2)c1 | > 100 µM (inactive)
49 | O=C1NN(c2cccc(Br)c2)C(=O)/C1=C/c1ccc(-c2cc([N+](=O)[O-])ccc2O)o1 | > 100 µM (inactive)
50 | NS(=O)(=O)c1cc(C(=O)N=Nc2c(O)[nH]c3ccccc23)ccc1Cl | > 100 µM (inactive)
51 | Cc1nonc1C(=O)N/N=C/c1ccc(O)c(O)c1 | 18 µM
52 | O=C(O)CC(C(=O)O)N1C(=O)/C(=C/C=C/c2ccco2)SC1=S (stereo unspecified) | > 100 µM (inactive)
53 | Oc1cc(O)c2c(c1)O[C@H](c1ccc(O)c(O)c1)[C@@H](O)C2 | > 100 µM (inactive)
54 | O=C(Nc1cccc(-c2cccc(Cl)c2)c1)C1CCN(C2CCC2)CC1 | 10.2 µM
55 | O=C(CSc1nc2nn(-c3ccccc3)c(=O)c-2c2n1CCCCC2)c1ccc(O)c(O)c1 | > 100 µM (inactive)
56 | CCOc1ccccc1CNC(=O)CCNS(=O)(=O)c1ccc2[nH]c(=O)oc2c1 | > 100 µM (inactive)
57 | O=C(NCCCCc1ccccc1)NC[C@@H]1CC[C@@H](Cc2ccc(-c3ccccc3)cc2)O1 | 6.58 µM
58 | Cn1nc([N+](=O)[O-])nc1S(C)(=O)=O | > 100 µM (inactive)
59 | COc1cc(/C=C/[N+](=O)[O-])ccc1OC(=O)c1cc2ccccc2oc1=O | > 100 µM (inactive)
60 | O=C(Nc1ccc(Cl)cc1)NC1CCCCC1Cc1ccco1 (stereo unspecified) | > 100 µM (inactive)
61 | Nc1nnc(CC(=O)N/N=C/c2cc([N+](=O)[O-])cc(Br)c2O)s1 | > 100 µM (inactive)
62 | CCN(C(=O)C(C)N1C(=O)/C(=C/c2ccco2)SC1=S)C1CCS(=O)(=O)C1 (stereo unspecified) | 7.78 µM
63 | COc1ccc(CN2C3CCCC2CC(NC(=O)Nc2cccc(C)c2)C3)cc1 (stereo unspecified) | 30.5 µM
64 | COC(=O)C/C=N/N=C1/NC(=O)/C(=C/C(=O)O)S1 | 8.44 µM
65 | O=C(CN1C(=O)/C(=C/c2ccco2)SC1=S)Nc1ccc(O)c(C(=O)O)c1 | 17.2 µM
66 | C#CCOCCOCCOCCNc1nc(N2CCN(C(=O)CCCCCCCCCCNC(=O)Cn3cc(C[C@@H](C)O)nn3)CC2)nc(N2CCN(C(=O)CCCCCCCCCCNC(=O)[C@@H](CCSC)n3cc(CCO)nn3)CC2)n1 | 39.9 µM
67 | Cc1cc(O)c(Sc2ncn[nH]2)cc1NS(=O)(=O)c1ccc(Cl)cc1 | > 100 µM (inactive)
68 | N#Cc1c(SCC(=O)Nc2nncs2)sc2c(O)cc(=O)[nH]c12 | > 100 µM (inactive)
69 | N#CC(C#N)=Cc1ccc(O)c(O)c1 | > 100 µM (inactive)

Row | SMILES | IC50
70 | O=C(CCN1C(=O)/C(=C/c2ccco2)SC1=S)Nc1ccc(O)cc1C(=O)O | > 100 µM (inactive)
71 | C#CCOCCOCCOCCNc1nc(N2CCN(C(=O)CCCCCCCCCCNC(=O)[C@@H](CCSC)n3cc(CCO)nn3)CC2)nc(N2CCN(C(=O)CCCCCCCCCCNC(=O)[C@H]([C@@H](C)CC)n3cc(CCCCN=C(N)N)nn3)CC2)n1 | > 100 µM (inactive)
72 | O=C(COC(=O)c1ccccc1)Nc1ncc([N+](=O)[O-])s1 | 60.2 µM
73 | CC(C)=CCc1c(O)c(CC=C(C)C)c2c(c1O)-c1cc(O)c(O)cc1CC2 | > 100 µM (inactive)
74 | C#CCOCCOCCOCCNc1nc(N2CCN(C(=O)CCCCCCCCCCNC(=O)Cn3cc(CCCCCN)nn3)CC2)nc(N2CCN(C(=O)CCCCCCCCCCNC(=O)[C@@H](CCSC)n3cc(CCO)nn3)CC2)n1 | > 100 µM (inactive)
75 | N#Cc1c(SCC(=O)Nc2nccs2)sc2c(O)cc(=O)[nH]c12 | > 100 µM (inactive)
76 | Cc1cc(F)ccc1S(=O)(=O)Nc1ccc(O)c(Sc2ncn[nH]2)c1 | 6.94 µM
77 | CCN1/C(=C/C=C/c2sc3ccccc3[n+]2CC)Sc2ccccc21 | > 100 µM (inactive)
78 | Cc1ccc(S(=O)(=O)Nc2ccc(O)c(Sc3ncn[nH]3)c2)cc1 | > 100 µM (inactive)
79 | S=C(NCc1ccc(Cl)cc1Cl)NC1CCCCC1 | > 100 µM (inactive)
80 | CC(C)(C)c1ccc(O)c(N=Cc2cc3c(cc2[N+](=O)[O-])OCO3)c1 | > 100 µM (inactive)
81 | CCN(c1ccccc1)S(=O)(=O)c1ccc2[nH]c(=O)[nH]c2c1 | 62.6 µM
82 | CCn1nc(C)c(CN2CCC(C(=O)Nc3cccc(-c4cccc(Cl)c4)c3)CC2)c1C | > 100 µM (inactive)
83 | FC(F)Sc1ccc(NC(=S)NC(c2ccccc2)c2ccccc2)cc1 | > 100 µM (inactive)
84 | COc1cc(OC)c2c(c1O)OC(c1ccccc1)CC2=O (stereo unspecified) | > 100 µM (inactive)
85 | CCn1c(SCC(=O)c2ccc(O)c(O)c2)nnc1-c1ccccc1OC | > 100 µM (inactive)
86 | Oc1cc(O)c2c(c1)OC(c1ccc(O)c(O)c1)C(O)C2 (stereo unspecified) | > 100 µM (inactive)
87 | CCn1cc(CN2CCC(C(=O)Nc3cccc(-c4cccc(Cl)c4)c3)CC2)c(C)n1 | > 100 µM (inactive)
88 | O=C1CNC(=S)N1CCc1ccc(O)c(O)c1 | > 100 µM (inactive)
89 | COc1ccc(C2CC(c3ccccc3Cl)=NN2c2ccc(S(N)(=O)=O)cc2)cc1 (stereo unspecified) | > 100 µM (inactive)
90 | Cc1ccc(NC(=S)NCc2ccccc2)cc1S(=O)(=O)N1CCCCC1 | > 100 µM (inactive)
91 | O=C(NNC(=O)c1cc2cc(Br)ccc2oc1=O)c1ccc(O)cc1O | > 100 µM (inactive)

Source: PubChem BioAssay AID488879 (Sanford-Burnham Center for Chemical Genomics, 2010)
